{"source": "patent US7268160B2", "about": "“Remedies” (Takara Bio, Inc., priority 2000, dated 2007)", "key": {"[1]": {"tested_on": "NGF production in the L-M cells", "assay": "Enhancing activity for NGF production, Reference Example 1 method (24 hours culture, NGF enzyme immunoassay of culture medium)", "format": "cell-based, murine", "details": "for Enhancement Ratio (%): negative control = 100%", "procedure": "L-M cells (ATCC CCL-1.2) from murine fibroblasts were suspended in an M199 medium (manufactured by ICN) containing 0.5% bactopeptone (manufactured by Gibco BRL) so as to have a concentration of 1.5×10^5 cells/mi. The suspension was put in a 96-well plate in an amount of 0.1 ml each well, and the cells were aseptically cultured. After culturing the cells for 3 days, the medium was removed therefrom, and exchanged with an M199 medium containing 0.5% bovine serum albumin (manufactured by Sigma). Caffeic acid (manufactured by Sigma, dimethyl suif oxide (DMSO) solution), a substance known to have enhancing activity for NGF production, was added to each well containing the cells, so as to have a final concentration of 0, 50, 100 or 200 μM, and the cells were cultured for 24 hours. One having a caffeic acid concentration of 0 μM was used as a negative control. In addition, the final concentration of DM50 in each well was adjusted to 0.1%. After the termination of the culture, the NGF concentration in the culture medium was determined by an enzyme immunoassay method (NGF Emax Immuno Assay System, manufactured by Promega). The degree of the enhancement for NGF production of caffeic acid at each added amount was expressed in percentage as the enhancement ratio (%) on the basis of the NGF concentration in the cell culture medium at each added amount, when the NGF concentration in the cell culture medium of the negative control was defined as 100%. The experiment was carried out twice, and an average value was taken. It was shown that the enhancing activity for NGF production of caffeic acid could be assayed by this method.\nThe enhancing activity for NGF production of the compound (13) (manufactured by Funakoshi) was assayed in the same manner as in Reference Example 1. The compound (13) was added so as to have a final concentration of 0, 0.5, 1, 2, 5, 10, 20 or 50 μM.\nThe enhancing activity for NGF production of a compound (14) (manufactured by Sigma) was assayed in the same manner as in Reference Example 1. The compound (14) was added so as to have a final concentration of 0, 50, 100 or 200 μM.\nThe enhancing activity for NGF production of a compound (15) (manufactured by Sigma) was assayed in the same manner as in Reference Example 1. The compound (15) was added so as to have a final concentration of 0, 12.5, 25 or 50 μM.\nThe enhancing activity for NGF production of a compound (16) (manufactured by Wako Pure Chemical Industries) was assayed in the same manner as in Reference Example 1. The compound (16) was added so as to have a final concentration of 0, 25, 50 or 100 μM."}, "CDF1 mice": {"tested_on": "CDF1 mice", "assay": "Toxicity on oral administration to mice", "format": "in vivo", "details": "oral administration to a mouse once at 1000 mg/kg", "excerpt": "Each of the compounds used in Example 16 was orally administered to mice in the same manner as in Test Example 1 described above."}, "NGF": {"tested_on": "NGF", "assay": "Content of NGF in sciatic nerves of streptozotocin-induced diabetic rats", "format": "in vivo, SD rats", "details": "4 weeks", "procedure": "Male SD rats were purchased from Nippon SLC, and used for an experiment at 5 weeks old after preliminary rearing. Streptozotocin (manufactured by Nakalai Tesque) was administered intraperitoneally to the rats at a dose of 100 mg/kg body weight to induce diabetes. The rats were divided into groups according to the blood sugar level after 5 days from the administration of streptozotocin. Next, a solution prepared by dissolving butein [compound (13)] in physiological saline was administered intraperitoneally to the rats at a dose of 100 μg per 1 kg body weight. In the control group, physiological saline alone was administered in the same manner. The rats were administered for consecutive days, and sciatic nerves (about 35 mg) were enucleated after 4 weeks from the beginning of administration. The enucleated sciatic nerves were homogenized, and NGF was extracted. The content of NGF was assayed by an enzyme immunoassay method (NGF Emax Immuno Assay System, manufactured by Promega).\nThe numerical figures in the table are expressed by an average value±standard error of 6 cases. In addition, the asterisk * means that the group has a significant difference at a significance level of 5% or less as compared to the control group according to Student-t test. […] As described above, it was clarified that the NGF production was enhanced by the administration of butein to a living body."}, "SD rats": {"tested_on": "SD rats", "assay": "Toxicity test in rats (Test Example 1)", "format": "in vivo", "details": "male SD rats", "procedure": "Male SD rats were purchased from Nippon SLC, and used for an experiment from 6 week-old after preliminary rearing. A solution prepared by dissolving butein [compound (13)] in physiological saline was administered intraperitoneally, or a suspension prepared by suspending butein in 0.5% carboxymethylcellulose was given by forced oral administration, to the rats. The concentration of administration was 300 mg (N=3), 10 mg (N=3), 1 mg (N=3) or 0.1 mg (N=3) per 1 kg body weight in the case of intraperitoneal administration, and 1 g (N=2) and 0.1 g (N=3) per 1 kg body weight in the case of forced oral administration. In the control group, each of the solvents alone was administered in the same manner."}}, "data": [{"smiles": "O=C(/C=C/c1ccc(O)c(O)c1)c1ccc(O)cc1O", "note": "[Compound (13), Butein]", "values": [{"measurement": "Enhancement of NGF production (in words)", "setting": "[1]; L-M cells", "value": "enhanced NGF production in the L-M cells in a concentration-dependent manner"}, {"measurement": "Enhancement Ratio (%)", "setting": "[1]; added amount 0.5 μM", "value": 120, "unit": "%"}, {"measurement": "Enhancement Ratio (%)", "setting": "[1]; added amount 1 μM", "value": 462, "unit": "%"}, {"measurement": "Enhancement Ratio (%)", "setting": "[1]; added amount 2 μM", "value": 1107, "unit": "%"}, {"measurement": "Enhancement Ratio (%)", "setting": "[1]; added amount 5 μM", "value": 2100, "unit": "%"}, {"measurement": "Enhancement Ratio (%)", "setting": "[1]; added amount 10 μM", "value": 3686, "unit": "%"}, {"measurement": "Enhancement Ratio (%)", "setting": "[1]; added amount 20 μM", "value": 3927, "unit": "%"}, {"measurement": "Enhancement Ratio (%)", "setting": "[1]; added amount 50 μM", "value": 1743, "unit": "%"}, {"measurement": "Cases of death", "setting": "CDF1 mice", "value": "no cases of death"}, {"measurement": "Content of NGF (pg/Sciatic Nerves)", "setting": "NGF; 100 μg per 1 kg body weight intraperitoneally, consecutive days, streptozotocin diabetic rats, average ± standard error, N = 6, * significant at 5% vs control (119.2 ± 11.7)", "value": "187.7 ± 26.4* pg/Sciatic Nerves"}, {"measurement": "Content of NGF in the nerves vs control group (in words)", "setting": "NGF; 100 μg per 1 kg intraperitoneally, diabetic rats", "value": "content of NGF in the nerves was increased"}, {"measurement": "Toxicity findings (death, general conditions, body weight, dissection)", "setting": "SD rats; forced oral administration, 1 g and 0.1 g per 1 kg body weight", "value": "no cases of death, changes in the general conditions, suppression of the increase in the body weight or abnormal findings at the dissection were found"}, {"measurement": "Toxicity findings (death, general conditions, body weight, dissection)", "setting": "SD rats; intraperitoneal administration, 300 mg, 10 mg, 1 mg or 0.1 mg per 1 kg body weight", "value": "no cases of death, changes in the general conditions, suppression of the increase in the body weight or abnormal findings at the dissection were found"}]}]}
